According to patent publication US11214803B2, “Modulators of YAP1 expression” (Ionis Pharmaceuticals, Inc., priority 2019, dated 2022):

What was measured:
[1] = Cynomolgus monkey tolerability, coagulation (Example 34); type: in vivo; conditions: cynomolgus monkeys, 35 mg/kg subcutaneously, day 44
Procedure: To evaluate effect of Ionis modified oligonucleotides on coagulation in cynomolgus monkeys, blood samples of approximately 0.9 mL were collected from each of the available study animals on day 44. The samples were collected in tubes containing 3.2% sodium citrate. Coagulation parameters tested include Activated partial thromboplastin time (APTT), prothrombin time (PT) and Figrinogen (FIB).

[2] = cynomolgus monkey, in vivo, sc, 35 mg/kg
Yap1 mRNA [3] = experiment: Dose-dependent inhibition of human Yap1 in SNU-449 cells (Example 9, RTS36584); type: cell-based; conditions: free uptake; for % UTC (Yap1 mRNA): approximately 48 hours; for IC50: linear regression on a log/linear plot
Method in brief: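 SNU-449 cells (10,000/well) took up modified oligonucleotides by free uptake at a range of doses for about 48 h. Yap1 mRNA was quantified with primer-probe set RTS36584, normalised to RIBOGREEN total RNA and expressed as % untreated control; IC50 from linear regression on log/linear plot.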

[4] = Cynomolgus monkey tolerability, pro-inflammatory proteins analysis, Complement C3 and CRP (Example 34); type: in vivo; conditions: cynomolgus monkeys, 35 mg/kg subcutaneously; for CRP: day 44
Method in brief: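 Inflammatory effects of oligonucleotides in cynomolgus monkeys were assessed using blood samples taken after an overnight fast. About 0.8 mL of blood per animal went into tubes without anticoagulant so serum could be separated. Complement C3 was measured on a Toshiba 120 FR NEO chemistry analyzer. C-Reactive Protein was measured alongside the liver-function clinical chemistry parameters.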

Yap1 mRNA [5] = experiment: Inhibition of human Yap1 mRNA in epidermoid carcinoma A-431 xenograft tumors (Example 27); type: in vivo; conditions: A-431 xenografts in NCr-Foxn1nu mice, 6-8 hours post final dose, relative to PBS
Procedure: An epidermoid carcinoma A-431 xenograft tumor model was used to evaluate activity of modified oligonucleotides targeted to human Yap1. Five million A-431 cells in 30% matrigel were implanted subcutaneously into the flanks of female NCr-Foxn1nu mice (from Taconic) at 4-6 weeks of age. When tumors reached an average volume of 40 mm^3, approximately two weeks post-implantation, groups of four mice each were administered at either 25 mg/kg or 50 mg/kg daily with modified oligonucleotides for […] (5 doses). Tumors were collected 6-8 hours post final dose and tested for Yap1 mRNA knockdown by RT-qPCR. Yap1 mRNA levels were measured as previously described using the Human Yap1 primer-probe set RTS4814. Yap1 mRNA levels were normalized to actin-beta content, as measured by primer probe set RTS5002. Results are presented in the tables below as percent control of the amount of Yap1 mRNA relative to PBS treated animals (% control).

[6] = Cynomolgus monkey tolerability, urine analysis (Example 34); conditions: cynomolgus monkeys, 35 mg/kg subcutaneously, day 44
Yap1 mRNA [7] = experiment: Inhibition of human Yap1 mRNA in squamous cell carcinoma CAL27 xenograft tumors (Example 28); type: in vivo; conditions: CAL27 xenografts in NCr-Foxn1nu mice, relative to PBS treated
Procedure: A squamous cell carcinoma CAL27 xenograft tumor model was used to evaluate activity of modified oligonucleotides targeted to human Yap1. Five million CAL27 cells in 30% matrigel were implanted subcutaneously into the flanks of female CrTac:NCr-Foxn1nu mice (from Taconic) at 4-6 weeks of age. Groups of four mice each were administered with either 15 mg/kg or 30 mg/kg of modified oligonucleotides daily for five days after tumor size had reached ˜100 mm^3 (about 3 weeks post implantation). Tumors were collected and tested for Yap1 mRNA knockdown by RT-qPCR. Yap1 mRNA levels were measured as previously described using the Human Yap1 primer-probe set RTS4814. Yap1 mRNA levels were normalized to actin-beta content, as measured by primer probe set RTS5002. Results are presented in the tables below as percent control of the amount of Yap1 mRNA relative to PBS treated […].

[8] = Tolerability in Sprague-Dawley rats, plasma chemistry markers (Example 22); type: in vivo; conditions: male Sprague-Dawley rats, 50 mg/kg s.c. weekly for 6 weeks (7 doses), 48 hours after last dose
Procedure: Sprague-Dawley rats are a multipurpose model used for safety and efficacy evaluations. The rats were treated with Ionis modified oligonucleotides from the studies described in the Examples above and evaluated for changes in the levels of various plasma chemistry markers.

Yap1 mRNA [9] = experiment: Dose-dependent inhibition of human Yap1 in A-431 cells (Example 24, 11,000 cells per well, RTS36584, normalized to GAPDH); type: cell-based; conditions: free uptake, 48 hours; for Yap1 mRNA, % UTC: RTS36584, normalized to GAPDH
Procedure: Modified oligonucleotides described in the studies above were tested at various doses in A-431 cells. Cultured A-431 cells at a density of 11,000 cells per well were treated using free uptake with modified oligonucleotides diluted to concentrations described in the tables below. After approximately 48 hours, Yap1 mRNA levels were measured as previously described using the Human Yap1 primer-probe set RTS36584. Yap1 mRNA levels were normalized to GAPDH content, as measured by primer probe set RTS104 (forward sequence […], designated herein as SEQ ID NO.: 17; reverse sequence […], designated herein as SEQ ID NO.: 18; probe sequence […], designated herein as SEQ ID NO.: 19). Results are presented in the tables below as percent control of the amount of Yap1 mRNA relative to untreated control cells (% UTC). IC50s were calculated using a linear regression on a log/linear plot of the data in excel.

Row | Substance | APTT [1] [s] | FIB [1] [mg/dL] | PT [1] [s] | A/G ratio [2] | % UTC (Yap1 mRNA) (Yap1 mRNA [3]; 31.3 nM) [% UTC] | % UTC (Yap1 mRNA) (Yap1 mRNA [3]; 125.0 nM) [% UTC] | % UTC (Yap1 mRNA) (Yap1 mRNA [3]; 500.0 nM) [% UTC] | % UTC (Yap1 mRNA) (Yap1 mRNA [3]; 2000.00 nM) [% UTC] | IC50 (Yap1 mRNA [3]) [nM] | Complement C3 ([4]; Day 42 (pre-dose)) [mg/dL] | Complement C3 ([4]; day 42 (24 hr post-dose)) [mg/dL] | CRP [4] [mg/L] | Yap1 mRNA in tumors, % control (Yap1 mRNA [5]; 25 mpk daily (5 doses)) [% control] | Yap1 mRNA in tumors, % control (Yap1 mRNA [5]; 50 mpk daily (5 doses)) [% control] | UALB [6] [mg/dL] | UCRE [6] [mg/dL] | UTP [6] [mg/dL] | Yap1 mRNA in tumors, % UTC (Yap1 mRNA [7]; 15 mg/kg daily for five days) [% UTC] | Yap1 mRNA in tumors, % UTC (Yap1 mRNA [7]; 30 mg/kg daily for five days) [% UTC] | ALT [8] [U/L] | also measured
1 | 1198728 (TATTAGAGTATGTGGC; modified gapmer, further chemistry not given here) [compound 1198728] | 18 | 242 | 9 | 1.3 | 51 | 28 | 9 | 3 | < 30 | 93 | 90 | 4.0 | 47 | 39 | 0.3 | 70 | 16 | 77 | 56 | 54 | AST [8]: 71 U/L; BUN [8]: 22 mg/dL; TBIL [8]: 0.18 mg/dL; Yap1 mRNA, % UTC (Yap1 mRNA [9]; 0.002 μM): 1 % UTC; Yap1 mRNA, % UTC (Yap1 mRNA [9]; 0.008 μM): 4 % UTC; Yap1 mRNA, % UTC (Yap1 mRNA [9]; 0.04 μM): 27 % UTC; Yap1 mRNA, % UTC (Yap1 mRNA [9]; 0.2 μM): 85 % UTC; Yap1 mRNA, % UTC (Yap1 mRNA [9]; 1 μM): 87 % UTC; IC50 (Yap1 mRNA [9]; linear regression on a log/linear plot): 20 nM
2 | 1198831 (CACTTTTACATTAGGA; chemically modified gapmer, further chemistry not given here) [compound 1198831] | 18 | 209 | 10 | 1.4 | 74 | 33 | 10 | 4 | 100 | 81 | 81 | 1.1 | 47 | 37 | 0.1 | 46 | 13 | 70 | 48 | 54 | AST [8]: 69 U/L; BUN [8]: 23 mg/dL; TBIL [8]: 0.20 mg/dL; Yap1 mRNA, % UTC (Yap1 mRNA [9]; 0.002 μM): 2 % UTC; Yap1 mRNA, % UTC (Yap1 mRNA [9]; 0.008 μM): 6 % UTC; Yap1 mRNA, % UTC (Yap1 mRNA [9]; 0.04 μM): 28 % UTC; Yap1 mRNA, % UTC (Yap1 mRNA [9]; 0.2 μM): 72 % UTC; Yap1 mRNA, % UTC (Yap1 mRNA [9]; 1 μM): 83 % UTC
3 | 1198872 (TGTATGTCAGAAGAGT; chemically modified gapmer, further chemistry not given here) [compound 1198872] | 21 | 206 | 10 | 1.3 | 49 | 21 | 6 | 1 | < 30 | 103 | 96 | 1.1 | 34 | 26 | 0.3 | 111 | 14 | 55 | 38 | 109 | AST [8]: 134 U/L; BUN [8]: 18 mg/dL; TBIL [8]: 0.20 mg/dL; Yap1 mRNA, % UTC (Yap1 mRNA [9]; 0.002 μM): 1 % UTC; Yap1 mRNA, % UTC (Yap1 mRNA [9]; 0.008 μM): 3 % UTC; Yap1 mRNA, % UTC (Yap1 mRNA [9]; 0.04 μM): 19 % UTC; Yap1 mRNA, % UTC (Yap1 mRNA [9]; 0.2 μM): 70 % UTC; Yap1 mRNA, % UTC (Yap1 mRNA [9]; 1 μM): 94 % UTC
